Laboratory results taken from ChEMBL document CHEMBL5360534, “Synthetic α-glucosidase inhibitors as promising anti-diabetic agents: Recent developments and future challenges” (Eur J Med Chem, 2023).
pIC50: −log10 of the molar value. One block for each compound: values may come before it.

Key:
[1] = molecular target: T1, Alpha-glucosidase (Saccharomyces cerevisiae S288c, UniProt P53341+P38158+P07265); assay: Non-competitive inhibition of Saccharomyces cerevisiae alpha-glucosidase using p-nitrophenyl-alpha-D-glucopyranoside as substrate assessed as inhibition constant preincubated for 15 mins followed by substrate addition and measured after 30 mins by spectrophotometric analysis; format: protein assay
[2] = molecular target: T1, Alpha-glucosidase; assay: Inhibition of Saccharomyces cerevisiae alpha-glucosidase using p-nitrophenyl-alpha-D-glucopyranoside as substrate preincubated for 15 mins followed by substrate addition and measured after 30 mins by spectrophotometric analysis; format: protein assay
[3] = Inhibition of alpha-glucosidase (unknown origin); parameters: species or system Homo sapiens
[4] = species on record: Rattus norvegicus; assay: Anti-hyperglycemic activity against STZ-induced hyperglycemic rat model assessed as reduction in blood glucose level relative to control; format: functional; parameters: scale not given: the % may be the effect or the level left
[5] = molecular target: T1, Alpha-glucosidase; assay: Reversible non-competitive inhibition of Saccharomyces cerevisiae alpha-glucosidase using p-nitrophenyl-alpha-D-glucopyranoside as substrate assessed as inhibition constant preincubated for 10 mins followed by substrate addition and measured by absorbance based analysis; format: protein assay
[6] = molecular target: T1, Alpha-glucosidase; assay: Inhibition of Saccharomyces cerevisiae alpha-glucosidase using p-nitrophenyl-alpha-D-glucopyranoside as substrate preincubated for 10 mins followed by substrate addition and measured by absorbance based analysis; format: protein assay
[7] = Inhibition of alpha-glucosidase (unknown origin) using p-nitrophenyl glucopyranoside as substrate preincubated for 10 mins followed by substrate addition and measured after 30 mins by absorbance based analysis; parameters: species or system Homo sapiens
[8] = species on record: Homo sapiens; assay: Potency index, ratio of acarbose IC50 to test compound IC50 for inhibition of alpha-glucosidase (unknown origin) using p-nitrophenyl glucopyranoside as substrate preincubated for 10 mins followed by substrate addition and measured after 30 mins by absorbance based analysis; conditions: time 40.0 min
[9] = molecular target: T2, Alpha-glucosidase (Saccharomyces cerevisiae S288c) (UniProt P53341+P38158+P07265); assay: Potency index, ratio of acarbose IC50 to test compound IC50 for inhibition of Saccharomyces cerevisiae alpha-glucosidase using pNPG as substrate preincubated for 10 mins followed by substrate addition and measured after 20 mins by spectrophotometric analysis; format: protein assay; conditions: time 30.0 min
[10] = molecular target: T1, Alpha-glucosidase; assay: Inhibition of Saccharomyces cerevisiae alpha-glucosidase using pNPG as substrate preincubated for 10 mins followed by substrate addition and measured after 20 mins by spectrophotometric analysis; format: protein assay
[11] = molecular target: T1, Alpha-glucosidase; assay: Competitive inhibition of Saccharomyces cerevisiae alpha-glucosidase using pNPG as substrate assessed as inhibition constant preincubated for 10 mins followed by substrate addition and measured after 20 mins by spectrophotometric analysis; format: protein assay
[12] = molecular target: T1, Alpha-glucosidase; assay: Inhibition of Saccharomyces cerevisiae alpha-glucosidase using p-nitrophenyl-[…]-D-glucopyranoside as substrate preincubated for 15 mins followed by substrate addition and measured after 15 mins by absorbance based microplate reader analysis; format: protein assay
[13] = Inhibition of alpha-glucosidase (unknown origin) using 4-nitrophenyl-[…]-D-glucopyranoside as substrate preincubated for 20 mins followed by substrate addition and measured after 1 hr by absorbance based analysis; parameters: species or system Homo sapiens
[14] = molecular target: T1, Alpha-glucosidase; assay: (§1) Inhibition of Saccharomyces cerevisiae recombinant alpha-glucosidase using p-nitrophenyl-alpha-D-glucopyranoside as substrate preincubated for 15 mins followed by substrate addition and measured after 30 mins by microplate reader based analysis; format: protein assay
[15] = molecular target: T2, Alpha-glucosidase (Saccharomyces cerevisiae S288c); assay: as §1, with “Potency index, ratio of acarbose IC50 to test compound IC50 for inhibition” for “Inhibition”; format: protein assay; conditions: time 45.0 min
[16] = Inhibition of alpha-glucosidase (unknown origin) using p-NPG as substrate preincubated for 5 mins followed by substrate addition and measured after 30 mins by absorbance based analysis; parameters: species or system Homo sapiens
[17] = species on record: Homo sapiens; assay: Potency index, ratio of acarbose IC50 to test compound IC50 for inhibition of alpha-glucosidase (unknown origin) using p-NPG as substrate preincubated for 5 mins followed by substrate addition and measured after 30 mins by absorbance based analysis; conditions: time 35.0 min
[18] = molecular target: T1, Alpha-glucosidase; assay: Competitive inhibition of Saccharomyces cerevisiae alpha-glucosidase using pNPG as substrate assessed as inhibition constant; format: protein assay
[19] = molecular target: T1, Alpha-glucosidase; assay: Inhibition of Saccharomyces cerevisiae alpha-glucosidase using pNPG as substrate; format: protein assay
[20] = molecular target: T1, Alpha-glucosidase; assay: Inhibition of Saccharomyces cerevisiae alpha-glucosidase using p-nitrophenyl-alpha-D-glucopyranoside as substrate preincubated for 10 mins followed by substrate addition and measured after 20 mins by absorbance based microplate reader analysis; format: protein assay
[21] = molecular target: T1, Alpha-glucosidase; assay: Inhibition of Saccharomyces cerevisiae alpha-glucosidase using p-nitrophenyl glucopyranoside as substrate preincubated for 10 mins followed by substrate addition and measured after 30 mins by absorbance based microplate reader analysis; format: protein assay
[22] = molecular target: T1, Alpha-glucosidase; assay: Inhibition of Saccharomyces cerevisiae alpha-glucosidase using p-nitrophenyl-alpha-D-glucopyranoside as substrate preincubated for 15 mins followed by substrate addition and measured by microplate reader analysis; format: protein assay
[23] = molecular target: T2, Alpha-glucosidase (Saccharomyces cerevisiae S288c); assay: Potency index, ratio of acarbose IC50 to test compound IC50 for inhibition of Saccharomyces cerevisiae alpha-glucosidase using p-nitrophenyl-alpha-D-glucopyranoside as substrate preincubated for 15 mins followed by substrate addition and measured by microplate reader analysis; format: protein assay
[24] = molecular target: T1, Alpha-glucosidase; assay: Inhibition of Saccharomyces cerevisiae alpha-glucosidase using p-nitrophenyl-alpha-D-glucopyranoside as substrate preincubated for 5 mins followed by substrate addition and measured after 15 mins by absorbance based microplate reader analysis; format: protein assay
[25] = molecular target: T1, Alpha-glucosidase; assay: Un-competitive inhibition of Saccharomyces cerevisiae alpha-glucosidase using p-nitrophenyl glucopyranoside as substrate assessed as inhibition constant preincubated for 15 mins followed by substrate addition and measured after 20 mins by spectrophotometric analysis; format: protein assay
[26] = molecular target: T1, Alpha-glucosidase; assay: Inhibition of Saccharomyces cerevisiae alpha-glucosidase using p-nitrophenyl glucopyranoside as substrate preincubated for 10 mins followed by substrate addition and measured after 20 mins by spectrophotometric analysis; format: protein assay
[27] = molecular target: T1, Alpha-glucosidase; assay: Inhibition of Saccharomyces cerevisiae alpha-glucosidase using p-nitrophenyl-alpha-D-glucopyranoside as substrate preincubated for 20 mins followed by substrate addition and measured after 30 mins by spectrophotometric analysis; format: protein assay

SMILES: O=C(NNS(=O)(=O)c1cc(Cl)c(Cl)cc1Cl)c1ccc2[nH]cc(C(c3ccccc3)c3c[nH]c4ccc(C(=O)NNS(=O)(=O)c5cc(Cl)c(Cl)cc5Cl)cc34)c2c1
pIC50 [7]: 7.00 | Ratio IC50 [8]: 8500

SMILES: O=C1Nc2ccc([N+](=O)[O-])cc2C1(c1c[nH]c2ccc(O)cc12)c1c[nH]c2cccc(O)c12 (configuration not stated)
IC50 [12]: 67 µM

SMILES: Oc1ccccc1-c1cc(-c2ccc(C(F)(F)F)cc2)n(-c2ccccc2)n1
pIC50 [13]: 3.94

SMILES: Cn1cc(-c2nnc(-c3ccc(C(c4cn(Cl)c5ccccc45)c4cn(Cl)c5ccccc45)cc3)o2)c2ccccc21
IC50 [14]: 2 µM | Ratio IC50 [15]: 400

SMILES: Cc1ccccc1C(=O)/N=c1\scc(C)n1-c1cc(Cl)c(Cl)cc1Cl
pIC50 [16]: 6.82 | Ratio IC50 [17]: 255

SMILES: COc1cc(-c2[nH]c3ccccc3c2/C=N/NC(=S)Nc2ccccc2)cc(OC)c1OC
Ki [18]: 27 µM | IC50 [19]: 27 µM

SMILES: O=C1CS/C(=N\N=C\c2ccc(OS(=O)(=O)c3ccccc3[N+](=O)[O-])cc2)N1
IC50 [20]: 42.8 µM

SMILES: Cc1cccc(NC(=O)CSc2nnc(Cc3c[nH]c4ccccc34)o2)c1
IC50 [21]: 9.37 µM

SMILES: Oc1cc(-c2cc3cccc(Cl)c3o2)cc(O)c1O
IC50 [22]: 0.83 µM | Ratio IC50 [23]: 167

SMILES: CC(C)=C(C)CSc1nnc(-c2cc(OCC(F)(F)F)ccc2OCC(F)(F)F)o1
IC50 [27]: 46.01 µM

Continued, in another order:

Ki [1]: 2.04 µM | IC50 [2]: 2.56 µM
SMILES: O=C(COc1ccc2ccc(=O)oc2c1)N/N=C1\C(=O)N(Cc2ccccc2F)c2ccc(Cl)cc21

pIC50 [3]: 3.25
SMILES: COc1ccc(-n2c(SCC(=O)N/N=C/c3ccc(O)cc3)nc3ccccc3c2=O)cc1
Activity [4]: 43.07%

Ki [5]: 1.5 µM | IC50 [6]: 2.54 µM
SMILES: C/C(=N\OC(=O)/C=C/c1ccc(Br)cc1)c1cc2ccc(Br)cc2oc1=O

Ratio IC50 [9]: 18 | IC50 [10]: 40.6 µM | Ki [11]: 38 µM
SMILES: O=C(N/N=C/c1cn(-c2ccccc2)nc1-c1ccc([N+](=O)[O-])cc1)c1cc2ccccc2o1

IC50 [24]: 6.5 µM
SMILES: O=C(c1ccc(O)cc1)C1Cc2c(ccc3ccccc23)O1 (configuration not stated)

Ki [25]: 11 µM | IC50 [26]: 10.3 µM
SMILES: N#CC1=C(N)Oc2c(c(=O)[nH]c3c2ccc2ccccc23)C1c1ccc(Cl)cc1 (configuration not stated)
